Assay results published in patent US20250026724A1, “(1,4,5-TRISUBSTITUTED 1H-PYRAZOL-3-YL)OXY-2-ALKYLTHIOALKYL ACIDS AND -ALKYL ACID DERIVATIVES, SALTS THEREOF AND USE THEREOF AS ACTIVE HERBICIDAL INGREDIENTS” (BAYER AKTIENGESELLSCHAFT, priority 2021, published 2025).

Legend:
Assay type in all cases: in vivo
[1] = system: Digitaria sanguinalis (DIGSA); assay: Post-emergence herbicidal action, greenhouse pot trial; settings: visual rating after about 3 weeks; for pest or weed control at 320 g/ha: Digitaria sanguinalis, 504 h, read-out: Post-emergence effect at 320 g/ha against DIGSA in %
Protocol: (§1) Seeds of monocotyledonous and dicotyledonous weeds and crop plants are placed in sandy loam in plastic or organic planting pots, covered with soil and cultivated in a greenhouse under controlled growth conditions. 2 to 3 weeks after sowing, the trial plants are treated at the one-leaf stage. The compounds of the invention, formulated in the form of wettable powders (WP) or as emulsion concentrates (EC), are then sprayed onto the green parts of the plants as aqueous suspension or emulsion with addition of 0.5% additive at a water application rate equivalent to 600 l/ha. After about 3 weeks of keeping the trial plants in the greenhouse under optimum growth conditions, the effect of the preparations is rated visually in comparison to untreated controls. For example, 100% activity=the plants have died, 0% activity=like control plants.
(§2) Tables B1 to B14 below show the effects of selected compounds of the general formula (I) according to Table 1 on various harmful plants and at an application rate corresponding to 320 g/ha or lower, which were obtained by the trial procedure specified above. The appendices “a”, “b” and “c” give differentiation by dosage used with otherwise the same harmful plants tested.
(§3) As shown by results from Tables B1 to B19, inventive compounds of the general formula (I) in the case of post-emergence treatment have good herbicidal efficacy against harmful plants, for example Abutilon theophrasti (ABUTH), Alopecurus myosuroides (ALOMY), Amaranthus retroflexus (AMARE), Avena fatua (AVEFA), Digitaria sanguinalis (DIGSA), Echinochloa crus-galli (ECHCG), Bassia scoparia (KCHSC), Lolium rigidum (LOLRI), Matricaria inodora (MATIN), Pharbitis purpurea (PHBPU), Polygonum convolvulus (POLCO), Setaria viridis (SETVI), Veronica persica (VERPE) and Viola tricolor (VIOTR) at an application rate of 320 g of active substance or less per hectare, and good crop plant compatibility in the case of organisms such as Oryza sativa (ORYSA), Zea mays (ZEAMX), Brassica napus (BRSNW), Glycine max (GLXMA) and Triticum aestivum (TRZAS) at an application rate of 320 g or less per hectare.

Setaria viridis (SETVI) = assay: as above; settings: visual rating after about 3 weeks; for pest or weed control at 320 g/ha: Setaria viridis, 504 h, read-out: Post-emergence effect at 320 g/ha against SETVI in %
Protocol: as §1, §2, §3

Viola tricolor (VIOTR) = assay: as above; settings: Viola tricolor, 504 h, read-out: Post-emergence effect against VIOTR
Protocol: as §1, §2, §3

[2] = system: Matricaria inodora (MATIN); assay: as above; settings: Tripleurospermum inodorum, 504 h, visual rating after about 3 weeks; for pest or weed control at 80 g/ha: read-out: Post-emergence effect at 80 g/ha against MATIN in %; for pest or weed control at 320 g/ha: read-out: Post-emergence effect at 320 g/ha against MATIN in %
Protocol: as §1, §2, §3

[3] = system: Polygonum convolvulus (POLCO); assay: as above; settings: visual rating after about 3 weeks; for pest or weed control at 80 g/ha / pest or weed control at 320 g/ha: Fallopia convolvulus, 504 h; for pest or weed control at 80 g/ha: read-out: Post-emergence effect at 80 g/ha against POLCO in %; for pest or weed control at 320 g/ha: read-out: Post-emergence effect at 320 g/ha against POLCO in %
Protocol: as §1, §2, §3

[4] = system: Pharbitis purpurea (PHBPU); assay: as above; settings: visual rating after about 3 weeks; for pest or weed control at 80 g/ha / pest or weed control at 320 g/ha: Ipomoea purpurea, 504 h; for pest or weed control at 80 g/ha: read-out: Post-emergence effect at 80 g/ha against PHBPU in %; for pest or weed control at 320 g/ha: read-out: Post-emergence effect at 320 g/ha against PHBPU in %
Protocol: as §1, §2, §3

Lolium rigidum (LOLRI) = assay: as above; settings: visual rating after about 3 weeks; for pest or weed control at 320 g/ha: Lolium rigidum, 504 h, read-out: Post-emergence effect at 320 g/ha against LOLRI in %
Protocol: as §1, §2, §3

[5] = system: Amaranthus retroflexus (AMARE); assay: as above; settings: visual rating after about 3 weeks; for pest or weed control at 80 g/ha / pest or weed control at 320 g/ha: Amaranthus retroflexus, 504 h; for pest or weed control at 80 g/ha: read-out: Post-emergence effect at 80 g/ha against AMARE in %; for pest or weed control at 320 g/ha: read-out: Post-emergence effect at 320 g/ha against AMARE in %
Protocol: as §1, §2, §3

Avena fatua (AVEFA) = assay: as above; settings: visual rating after about 3 weeks; for pest or weed control at 320 g/ha: Avena fatua, 504 h, read-out: Post-emergence effect at 320 g/ha against AVEFA in %
Protocol: as §1, §2, §3

Bassia scoparia (KCHSC) = assay: as above; settings: 320 g/ha
Protocol: as §1, §2, §3

[6] = system: Alopecurus myosuroides (ALOMY); assay: as above; settings: visual rating after about 3 weeks; for pest or weed control at 320 g/ha: Alopecurus myosuroides, 504 h, read-out: Post-emergence effect at 320 g/ha against ALOMY in %
Protocol: as §1, §2, §3

[7] = system: Echinochloa crus-galli (ECHCG); assay: as above; settings: Echinochloa crus-galli, 504 h, visual rating after about 3 weeks; for pest or weed control at 80 g/ha: read-out: Post-emergence effect at 80 g/ha against ECHCG in %; for pest or weed control at 320 g/ha: read-out: Post-emergence effect at 320 g/ha against ECHCG in %
Protocol: as §1, §2, §3

[8] = system: Abutilon theophrasti (ABUTH); assay: as above; settings: Abutilon theophrasti, 504 h, visual rating after about 3 weeks; for pest or weed control at 80 g/ha: read-out: Post-emergence effect at 80 g/ha against ABUTH in %; for pest or weed control at 320 g/ha: read-out: Post-emergence effect at 320 g/ha against ABUTH in %
Protocol: as §1, §2, §3

[9] = system: Triticum aestivum (TRZAS); assay: Post-emergence crop plant compatibility, greenhouse pot trial; settings: in vivo
Protocol: as §1
The observed effects on selected crop plants are reported here in comparison to the untreated controls (values in %). The appendices “a”, “b” and “c” give differentiation by dosage used with otherwise the same useful plants tested.
as §3

Row | Compound | Post-emergence effect at 80 g/ha against DIGSA in % [1] | pest or weed control at 320 g/ha [1] | pest or weed control at 320 g/ha (Setaria viridis (SETVI)) | pest or weed control at 80 g/ha (Viola tricolor (VIOTR)) | pest or weed control at 320 g/ha (Viola tricolor (VIOTR)) | pest or weed control at 80 g/ha [2] | pest or weed control at 320 g/ha [2] | pest or weed control at 80 g/ha [3] | pest or weed control at 320 g/ha [3] | pest or weed control at 80 g/ha [4] | pest or weed control at 320 g/ha [4] | pest or weed control at 320 g/ha (Lolium rigidum (LOLRI)) | pest or weed control at 80 g/ha [5] | pest or weed control at 320 g/ha [5] | pest or weed control at 320 g/ha (Avena fatua (AVEFA)) | pest or weed control at 320 g/ha [6] | pest or weed control at 80 g/ha [7] | pest or weed control at 320 g/ha [7] | pest or weed control at 80 g/ha [8] | pest or weed control at 320 g/ha [8] | other results
1 | COC(=O)C(Oc1nn(-c2ncccc2F)c(-c2ccc(F)nc2)c1Br)SC (single isomer, unassigned) [Example I-26] | 90% | 90% | 80% | 90% | 90% | 90% | 90% | 80% | 90% | 80% | 90% | 90% | 80% | 90% | 90% | 90% | 90% | 90% | 80% | 80% | Post-emergence effect at 20 g/ha against POLCO in % ([3]; 20 g/ha): 80%; Post-emergence effect at 20 g/ha against PHBPU in % [4]: 80%; Post-emergence effect at 80 g/ha against AVEFA in % (Avena fatua (AVEFA); 80 g/ha): 80%; Post-emergence effect against KCHSC (Bassia scoparia (KCHSC)): 80%; Post-emergence effect at 80 g/ha against ALOMY in % ([6]; 80 g/ha): 80%
2 | CCOC(=O)C(Oc1nn(-c2ncccc2F)c(-c2ccc(F)nc2)c1Br)SC (single isomer, unassigned) [Example I-28] | 80% | 90% | 90% | 80% | 90% | 80% | 90% | 90% | 90% | 90% | 90% | 90% | 90% | 90% | 80% | 90% | 90% | 90% | 80% | 80% | Post-emergence effect at 80 g/ha against SETVI in % (Setaria viridis (SETVI)): 80%; Post-emergence effect at 20 g/ha against PHBPU in % [4]: 80%; Post-emergence effect at 80 g/ha against LOLRI in % (Lolium rigidum (LOLRI); 80 g/ha): 90%; Post-emergence effect at 20 g/ha against AMARE in % [5]: 80%; Post-emergence effect against KCHSC (Bassia scoparia (KCHSC)): 80%
3 | CSC(Oc1nn(-c2cc(F)ccc2F)c(-c2cncc(F)c2)c1Br)C(=O)O (stereo not drawn) [Example I-06] |  | 80% |  | 80% | 90% |  | 90% |  |  |  | 80% |  |  |  |  |  |  | 90% |  |  | Post-emergence effect at 320 g/ha against TRZAS in % [9]: 20%
4 | COC(=O)C(Oc1nn(-c2ccccc2F)c(-c2ccc(F)nc2)c1Br)SC (stereo not drawn) [Example I-10] | 90% | 90% | 90% | 80% | 90% | 80% | 90% | 80% | 80% |  | 80% | 90% | 80% | 80% |  | 100% | 80% | 90% | 90% | 90% | Post-emergence effect at 80 g/ha against SETVI in % (Setaria viridis (SETVI)): 90%; Post-emergence effect at 20 g/ha against AMARE in % [5]: 80%
5 | CCOC(=O)C(Oc1nn(-c2ncccc2F)c(-c2ccccc2)c1Br)SC (stereo not drawn) [Example I-11] |  |  |  |  |  |  | 80% | 80% | 80% |  |  |  | 80% | 90% |  |  |  | 80% |  | 80% | Post-emergence effect at 320 g/ha against TRZAS in % [9]: 0%
6 | CCOC(=O)C(Oc1nn(-c2ncccc2F)c(-c2ccc(F)nc2)c1Br)SC (stereo not drawn) [Example I-13] |  | 90% | 90% |  | 80% |  |  | 80% | 90% | 80% | 80% | 90% | 80% | 90% | 90% | 80% | 80% | 90% | 90% | 90% | Post-emergence effect at 80 g/ha against SETVI in % (Setaria viridis (SETVI)): 80%
7 | COC(=O)C(Oc1nn(-c2ncccc2F)c(-c2ccc(F)nc2)c1Cl)SC (stereo not drawn) [Example I-56] |  | 80% | 90% | 80% | 90% |  | 80% | 80% | 90% | 90% | 90% | 90% |  |  | 90% | 80% | 90% | 90% | 80% | 90% | Post-emergence effect at 20 g/ha against PHBPU in % [4]: 80%; pest or weed control at 320 g/ha (Bassia scoparia (KCHSC); Bassia scoparia, 504 h, read-out: Post-emergence effect against KCHSC): 80%
